Test results taken from patent publication US5658885A, “Amidino and guanidino substituted boronic acid inhibitors of trypsin-like enzymes” (The DuPont Merck Pharmaceutical Company, priority 1994, dated 1997).
Where a name gives a salt, the structure may show the parent alone.

Key:
human factor Xa = molecular target: T1, human factor Xa (Homo sapiens, UniProt P00742); test: Inhibition of Factor Xa hydrolysis of chromogenic substrate S2222 (Ki); assay type: biochemical; conditions: S2222, pH 7.5
T1 construct: 0.2-0.5 nM human thrombin or human factor Xa; purchased Enzyme Research Laboratories, South Bend, Ind
Protocol: (§1) The effectiveness of compounds of the present invention as inhibitors of blood coagulation proteases was determined using purified human proteases and synthetic substrates following procedures similar to those described in Kettner et al. (1990).
(§2) For these assays, the rate of enzymatic (thrombin, Factor Xa, and Factor VIIa) hydrolysis of chromogenic substrates (S2238 (H-D-Phe-Pip-Arg-pNA), S2222, and S2288, respectively; Kabi Pharmacia, Franklin, Ohio) was measured both in the absence and presence of compounds of the present invention. […] A decrease in the rate of absorbance change at 405 nm in the presence of inhibitor is indicative of enzyme inhibition. The results of this assay are expressed as inhibitory constant, Ki.
(§3) Thrombin and Xa determinations were made in 0.10M sodium phosphate buffer, pH 7.5, containing 0.20M NaCl, and 0.5% PEG 8000. VIIa determinations were made in 0.05M tris buffer, pH 7.6, containing 0.10M NaCl, 4 mM CaCl2, and 0.1% bovine serum albumin.
(§4) Reactions were allowed to go for 30 minutes and the velocities (rate of absorbance change vs time) were measured in the time frame of 25-30 minutes. The following relationship was used to calculate Ki values. [formula] where: vo is the velocity of the control in the absence of inhibitor;
(§5) vs is the velocity in the presence of inhibitor;
(§6) I is the concentration of inhibitor;
(§7) Ki is the dissociation constant of the enzyme: inhibitor complex;
(§8) S is the concentration of substrate;
(§9) Km is the Michaelis constant.

human thrombin = molecular target: T2, human thrombin (Homo sapiens, UniProt P00734); test: Inhibition of thrombin hydrolysis of chromogenic substrate S2238 (Ki); assay type: biochemical; conditions: S2238, pH 7.5
T2 construct: 0.2-0.5 nM human thrombin or human factor Xa; purchased Enzyme Research Laboratories, South Bend, Ind
Protocol: as §1, §2, §3, §4, §5, §6, §7, §8, §9

T1 sequence (P00742 235-488 limits assumed): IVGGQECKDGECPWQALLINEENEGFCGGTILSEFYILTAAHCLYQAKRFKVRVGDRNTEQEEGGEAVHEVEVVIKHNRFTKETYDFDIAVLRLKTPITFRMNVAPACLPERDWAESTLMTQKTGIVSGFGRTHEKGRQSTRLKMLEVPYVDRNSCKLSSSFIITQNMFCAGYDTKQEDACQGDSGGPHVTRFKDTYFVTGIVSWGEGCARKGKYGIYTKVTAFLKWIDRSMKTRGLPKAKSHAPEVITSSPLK
T1 sequence (P00742 41-179 limits assumed): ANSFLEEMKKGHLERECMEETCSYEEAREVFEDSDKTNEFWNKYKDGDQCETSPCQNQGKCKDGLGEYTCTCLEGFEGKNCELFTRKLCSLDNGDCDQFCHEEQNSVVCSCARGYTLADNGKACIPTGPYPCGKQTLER

Compound	Ki (human factor Xa) [µM]	Ki (human thrombin) [µM]
Ac--Pro--boroPhe(m-CN)--C10 H16 [Example 35]		< 50
CC(C)(C)OC(=O)N[C@H](Cc1ccccc1)C(=O)N1CCC[C@H]1C(=O)NC(CCCNC=N)B1OC2CC3CC(C3(C)C)C2(C)O1 (stereo partly shown) [Example 6, Boc--(D)Phe--Pro--boroOrn(CH=NH)]--C10 H16.0.5 HCl.0.5 BSA]		< 0.5
CC1(C)C2CC3OB(C(Cc4cccc(C#N)c4)NC(=O)C4CCCN4)OC3(C)C1C2 (stereo not shown) [Example 26, H--Pro--boroPhe(m-CN)--C10 H16.HCl]		< 50
COCCCC(NC(=O)[C@@H]1CCCN1C(=O)[C@@H](Cc1ccccc1)NC(=O)[C@@H]1CCCN1)B1OC2CC3CC(C3(C)C)C2(C)O1 (stereo partly shown) [Example 145, H--Pro--(D)--Phe--Pro--boroGly[(CH2)3 --OCH3]--C10 H16]		< 0.5
CC1(C)C2CC3OB(C(CCCNS(C)(=O)=O)NC(=O)C4CCCN4C(=O)C(Cc4ccccc4)NS(C)(=O)=O)OC3(C)C1C2 (stereo not shown) [Example 116, Methanesulfonyl-(D)Phe--Pro--boroOrn(N-Methanesulfonyl)-C10 H16]		< 0.5
CC(C)(C)OC(=O)NC(Cc1ccccc1)C(=O)N1CCCC1C(=O)NC(CCCNC(=O)CO)B1OC2CC3CC(C3(C)C)C2(C)O1 (stereo not shown) [Example 112, Boc--(D)Phe--Pro--boroOrn(COCH2 OH)--C10 H16]		< 0.5
CC1(C)C2CC3OB(C(CCCNS(C)(=O)=O)NC(=O)[C@@H]4CCCN4C(=O)[C@H](N)Cc4ccccc4)OC3(C)C1C2 (stereo partly shown) [Example 114, H--(D)Phe--Pro--boroOrn(N-Methanesulfonyl)-C10 H16.HCl]		< 0.5
CC(=O)Nc1ccc(S(=O)(=O)NC(Cc2ccccc2)C(=O)N2CCCC2C(=O)NC(CCCNS(C)(=O)=O)B2OC3CC4CC(C4(C)C)C3(C)O2)cc1 (stereo not shown) [Example 115, 4-(N-Acetyl)Anilinesulfonyl-(D)Phe--Pro--boroOrn(N-Methanesulfonyl)-C10 H16]		< 0.5
COCCCC(NC(=O)C1CCCN1C(=O)C(Cc1ccccc1)NC(=O)CNC(C)=O)B1OC2CC3CC(C3(C)C)C2(C)O1 (stereo not shown) [Example 144, Ac--Gly--(D)--Phe--Pro--boroGly[(CH2)3 --OCH3]--C10 H16]		< 0.5
HOOCCH2 --(D)Phe--Pro--boroOrn[C(NCN)NHCH3 ]--C10 H16.HCl [Example 106]		< 0.5
CC(C)(C)OC(=O)N[C@H](Cc1ccccc1)C(=O)N1CCC[C@H]1C(=O)NC(CC1CCC(N)CC1)B1OC2CC3CC(C3(C)C)C2(C)O1 (stereo partly shown) [Example 125, Boc--(D)Phe--Pro--NH--CH[CH2 (4-amino-cyclohexyl)]BO2 --C10 H16]		< 0.5
CC(C)(C)OC(=O)NC(Cc1ccccc1)C(=O)N1CCCC1C(=O)NC(CCCONC(=N)N)B1OC2CC3CC(C3(C)C)C2(C)O1 (stereo not shown) [Example 104, Boc--(D)Phe--Pro--boroGly[(CH2)3 --ONHC(=NH)NH2]--C10 H16.HCl]		< 0.5
Hydrocinnamoyl-Pro--boroIrg(CH3)--OH.HBr [Example 50]		< 50
CC(=O)NC(Cc1ccccc1)C(=O)N1CCCC1C(=O)NC(CCCCC(=N)N)B1OC2CC3CC(C3(C)C)C2(C)O1 (stereo not shown) [Example 2, Ac--(D)Phe--Pro--NH--CH[(CH2)4 --C(NH)NH2]BO2 C10 H16.BSA]		< 0.5
CC(=O)N[C@H](Cc1ccccc1)C(=O)N1CCC[C@H]1C(=O)N[C@@H](Cc1cccc(Br)c1)B1O[C@@H]2C[C@@H]3C[C@@H](C3(C)C)[C@]2(C)O1 [Example 14, Ac--(D)Phe--Pro--boroPhe(m-Br)--C10 H16]		< 0.5
Boc--(D)Phe--Pro--boroOrn(COCH3)--C10 H16 [Example 123]		< 0.5
CC(C)(C)OC(=O)NC(Cc1ccccc1)C(=O)N1CCCC1C(=O)NC(CC1CCC(N=C(N)N)CC1)B1OC2CC3CC(C3(C)C)C2(C)O1 (stereo not shown) [Example 128, Boc--(D)Phe--Pro--NH--CH[CH2 (4-guanidino-cyclohexyl)]BO2 --C10 H16]		< 0.5
CC(C)(C)OC(=O)NC(Cc1ccccc1)C(=O)N1CCCC1C(=O)NC(Cc1cccc(C#N)c1)B1OC2CC3CC(C3(C)C)C2(C)O1 (stereo not shown) [Example 17, Boc--(D)Phe--Pro--boroPhe(m-CN)--C10 H16]		< 0.5
CN(C(=O)OC(C)(C)C)C(Cc1ccccc1)C(=O)N1CCCC1C(=O)NC(Cc1cccc(C#N)c1)B1OC2CC3CC(C3(C)C)C2(C)O1 (stereo not shown) [Example 33, N--Boc--N--CH3 --(D)Phe--Pro--boroPhe(m-CN)--C10 H16]		< 0.5
COCCCC(NC(=O)C1CCCN1C(=O)C(N)Cc1ccccc1)B1OC2CC3CC(C3(C)C)C2(C)O1 (stereo not shown) [Example 139, H--(D)--Phe--Pro--boroGly[(CH2)3 --OCH3]--C10 H16]		< 0.5

Further lines, results first:

Ki (human factor Xa) [µM]	Ki (human thrombin) [µM]	Compound
< 0.5	< 0.5	CN(C)C(Cc1ccccc1)C(=O)N1CCCC1C(=O)NC(Cc1cccc(C#N)c1)B(O)O (single isomer, unassigned; isomer i) [Example 20, N,N-(CH3)2 --(D)Phe--Pro--boroPhe--(m-CN)--OH.HCl (ISOMER I)]
< 50	< 0.5	CC(=O)N[C@H](Cc1ccccc1)C(=O)N1CCCC1C(=O)NC(CC1CCC(N)CC1)B1OC2CC3CC(C3(C)C)C2(C)O1 (stereo partly shown) [Example 124]
	< 0.5	H--(D)Phe--Pro--boroOrn(CONH2)--C10 H16.HCl [Example 109]
	< 0.5	Boc--(D)Phe--Aze--boroOrn(CH=NH)--OH.HCl [Example 74]
	< 0.5	CC(=O)NC(Cc1ccccc1)C(=O)N1CCCC1C(=O)NC(Cc1ccc(C#N)cc1)B1OC2CC3CC(C3(C)C)C2(C)O1 (stereo not shown) [Example 16, Ac--(D)Phe--Pro--boroPhe(p-CN)--C10 H16]
	< 0.5	PhCH2 SO2 --(D)Phe--Pro--boroArg(CH3)--OH.HCl [Example 61]
	< 0.5	N-alpha-[boroOrn(CH=NH)--OH]-(2-trans benzylcarboxamido)-cyclopentane-1-carboxamide.HCl [Example 71]
	< 0.5	CCOCCCC(NC(=O)C1CCCN1C(=O)C(Cc1ccccc1)NC(=O)OC(C)(C)C)B1OC2CC3CC(C3(C)C)C2(C)O1 (stereo not shown) [Example 121, Boc--(D)Phe--Pro--boroGly[(CH2)3 --OCH2 CH3]--C10 H16]
	< 0.5	PhSO2 --(D)Phe--Pro--boroArg(CH3)--OH.HCl [Example 58]
	< 0.5	CC(C)(C)OC(=O)NC(Cc1ccccc1)C(=O)N1CCCC1C(=O)NC(CCCNC(N)=O)B1OC2CC3CC(C3(C)C)C2(C)O1 (stereo not shown) [Example 108, Boc--(D)Phe--Pro--boroOrn(CONH2)--C10 H16]
	< 0.5	CC(C)(C)OC(=O)N[C@H](Cc1ccccc1)C(=O)N1CCCC1C(=O)NC(CC1CCC(O)CC1)B1OC2CC3CC(C3(C)C)C2(C)O1 (stereo partly shown) [Example 127, Boc--(D)Phe--Pro--NH--CH[CH2 (4-hydroxy-cyclohexyl)]BO2 --C10 H16]
	< 0.5	CN(CC(=O)NC(CCCNC=N)B(O)O)C(=O)C(Cc1ccccc1)NS(C)(=O)=O (stereo not shown) [Example 68, Ms--(D)Phe--Sar--boroOrn(CH=NH)--OH.HCI]
	< 0.5	CC(=O)NC(Cc1ccccc1)C(=O)N1CCCC1C(=O)NC(Cc1ccc(CN)cc1)B1OC2CC3CC(C3(C)C)C2(C)O1 (stereo not shown) [Example 21, Ac--(D)Phe--Pro--boroPhe(p-CH2 NH2)--C10 H16.BSA]
	< 0.5	Ac--(D)Phe--Pro--boroIrg(CH3)--OH.HBr [Example 52]
	< 0.5	CC1(C)C2CC3OB(C(Cc4cccc(C#N)c4)NC(=O)C4CCCN4C(=O)CSc4ncccn4)OC3(C)C1C2 (stereo not shown) [Example 41, (2-Pyrimidylthio)acetyl-Pro--boroPhe(m-CN)--C10 H16]
	< 0.5	CCCS(=O)(=O)NC(Cc1ccccc1)C(=O)N1CCCC1C(=O)NC(CCCNC(=N)NC)B(O)O (stereo not shown) [Example 64, CH3 CH2 CH2 SO2 --(D)Phe--Pro--boroArg(CH3)--OH.HCl]
	< 0.5	COC(=O)c1cccc(CC(NC(=O)C2CCCN2C(=O)C(N)Cc2ccccc2)B2OC3CC4CC(C4(C)C)C3(C)O2)c1 (stereo not shown) [Example 135, H--(D)Phe--Pro--boroPhe(mCOOMe)--C10 H16.HCl]
	< 0.5	Boc--(D)Phe--Pro--NH--CH[4-amino-cyclohexyl]BO2 --C10 H16 [Example 126]
	< 0.5	PhCH2 SO2 --(D)Phe--Pro--boroOrn(CH=NH)--OH.HCl [Example 62]
	< 0.5	CN(C)[C@H](Cc1ccccc1)C(=O)N1CCCC1C(=O)NC(CCCNS(C)(=O)=O)B1OC2CC3CC(C3(C)C)C2(C)O1 (stereo partly shown) [Example 117, N,N-dimethyl-(D)Phe--Pro--boroOrn-(N-Methanesulfonyl)-C10 H16.HCl]
	< 0.5	CC(=O)NC(Cc1ccccc1)C(=O)N(C)CC(=O)NC(CCCNC=N)B(O)O (stereo not shown) [Example 67, Ac--(D)Phe--Sar--boroOrn(CH=NH)--OH.HCl]
	< 0.5	CN(CC(=O)NC(CCCNC=N)B(O)O)C(=O)C(Cc1ccccc1)NS(=O)(=O)CCc1ccccc1 (stereo not shown) [Example 69, Phenethyl-SO2 --(D)Phe--Sar--boroOrn(CH=NH)--OH.HCl]
	< 0.5	H--(D)Phe--Pro--boroOrn(CH=NH)]--C10 H16.0.5 HCl.0.5 BSA [Example 8]
	< 0.5	CN(CC(=O)NC(Cc1cccc(C#N)c1)B1OC2CC3CC(C3(C)C)C2(C)O1)C(=O)C(Cc1ccccc1)NC(=O)OC(C)(C)C (stereo not shown) [Example 73, Boc--(D)Phe--Sar--boroPhe(m-CN)--C10 H16]
